Reference: patent US10092657B2, “Opsonized β-glucan preparations and methods” (Biothera, Inc., priority 2011, dated 2018)

Experiments:
iC3b = target: T1, iC3b (Homo sapiens, UniProt P01024); experiment: ELISA for iC3b deposition on immobilized PGG β-glucan; format: binding; conditions: 300 μg/mL immobilized
T1 construct: from tissue
Procedure: PGG β-glucan or dextran was immobilized on wells of a 96-well polystyrene plate (COSTAR, Coming, Inc., Lowell, Mass.) by drying the glucans at 50° C. followed by UV cross-linking. The glucan-coated plate was first blocked with 1% BSA before incubation with untreated serum or serum undergone various treatments as described in binding studies, diluted 1:2 with wash buffer (PBS/0.05% Tween-20) for 30 minutes at 37° C. After washing the serum from the plate, the bound iC3b was probed using the anti-iC3b monoclonal antibody followed by biotin-labeled goat anti-mouse IgG Ab. The amount of immobilized biotin-labeled antibody was determined using streptavidin peroxidase and TMB substrate solution (KPL, Gaithersburg, Md.). OD450 of each well was measured with the spectrophotometer SpectraMAX 250 (Molecular Devices, Sunnyvale, Calif.). Fold change was calculated as OD450 of wells containing immobilized β-glucan divided by OD450 of wells containing no β-glucan, both incubated in the presence of treated or untreated serum.

sC5b-9 complex = experiment: Measurement of fluid-phase SC5b-9 complex formation in the serum; format: biochemical, human
Procedure: The MicroVue SC5b-9 EIA kit was used to measure activation of the classical and alternative pathways of complement according to the vendor's instruction (Quidel Corp., San Diego, Calif.). Briefly, the serum, untreated or treated was mixed with PBS, Ab-sensitized sheep RBC (SRBC), or 20 units of CVF and added to plate wells pre-coated with anti-sC5b-9 monoclonal antibody. The plate was incubated at 37° C. for 60 minutes, followed by five washes with the provided wash buffer. The plate was then incubated with the provided SC5b-9 Plus Conjugate, which contained horseradish peroxidase-conjugated Ab specific for sC5b-9 at room temperature for 30 minutes. The plate was washed five times, incubated with the substrate for 15 minutes at room temperature to initiate the enzymatic reaction and subsequently quenched with the stop solution. OD450 Was measured using the spectrophotometer SpectraMAX 250. The concentration of fluid phase sC5b-9 present in the samples was determined from the standard curve generated with the provided sC5b-9 standards.

human neutrophils = experiment: Binding studies on the role of complement proteins in serum, neutrophils; format: cell-based
Procedure: Heat-inactivated (HI) serum was prepared by incubating serum in a 56° C. water bath for 30 minutes. […] Treatment of serum with methylamine (MA) was done by incubating serum with 0.67% of methylamine for 2.5 hours at 37° C., followed by three washes with DPBS using Amicon centrifugal filter unit with a 3K MW cut-off (Millipore, Billerica, Mass.). DPBS-treated serum was prepared in the same manner and used as control serum for MA-treated serum. For blocking of factor D in the serum, 166-32 at concentration 20 μg/mL was incubated with serum on ice for 30 minutes, and then used for binding studies. For binding experiments in the presence of EGTA or MgEGTA, serum was incubated with 10 mM EGTA with or without 10 mM MgCl2 for 10 minutes at room temperature. The untreated and EGTA/MgEGTA-treated serum was then used to pre-treat PGG and perform binding studies as described earlier.

human monocytes = experiment: Binding of PGG β-glucan to human monocytes within PBMC (BfD IV staining, flow cytometry); format: cell-based
Procedure: Enriched neutrophils or PBMC were resuspended at 1×10^6 cells/mL in RPMI 1640 supplemented with 10% serum. PGG β-glucan at hexose concentrations 100 μg/mL, 200 μg/mL, or 400 μg/mL were added to neutrophils or PBMC and incubated in a 37° C., 5% CO2 humidified incubator for two hours. After incubation, cells were washed twice with FACS buffer (HBSS supplemented with 1% FBS and 0.1% sodium azide) to remove any unbound β-glucan, and subsequently treated with Fc block (Miltenyi Biotec, Auburn, Calif.). […] Cells were then incubated with FITC-conjugated F(ab′)2 goat anti-mouse IgM for 30 minutes at 4° C. and washed once with cold FACS buffer before fixing with 1% paraformaldehyde. In early optimization experiments, neutrophils, monocytes, and T cells were identified by staining with fluorescently labeled anti-CD 15, anti-CD 14, or anti-CD3 Abs, respectively. Events were collected on a LSRII flow cytometer (BD Biosciences, San Jose, Calif.) and analysis was performed using FLOWJO (Tree Star, Ashland, Oreg.). […] Surface binding of DTAF-conjugated β-glucan was subsequently assessed by flow cytometric analysis. […] The experiments to determine binding of PGG β-glucan at 200 μg/mL to neutrophils or at 100 μg/mL to PBMC were performed as described above with the following changes. For determining serum dependency, PGG β-glucan was incubated with neutrophils or PBMC resuspended in RPMI 1640 containing 2%, 5%, or 10% autologous serum at 37° C. for two hours. For time-course experiments, PGG β-glucan at indicated concentrations was incubated with cells resuspended in 10% autologous serum at 37° C. for 10 minutes, 20 minutes, 60 minutes, or 120 minutes. For temperature dependency experiments, PGG β-glucan at indicated concentrations was incubated with cells resuspended in 10% autologous serum for two hours at 4° C., room temperature, or 37° C.

[1] = 2%, 5% or 10% autologous serum, 37° C., two hours

T1 sequence (P01024 749-1303 limits assumed): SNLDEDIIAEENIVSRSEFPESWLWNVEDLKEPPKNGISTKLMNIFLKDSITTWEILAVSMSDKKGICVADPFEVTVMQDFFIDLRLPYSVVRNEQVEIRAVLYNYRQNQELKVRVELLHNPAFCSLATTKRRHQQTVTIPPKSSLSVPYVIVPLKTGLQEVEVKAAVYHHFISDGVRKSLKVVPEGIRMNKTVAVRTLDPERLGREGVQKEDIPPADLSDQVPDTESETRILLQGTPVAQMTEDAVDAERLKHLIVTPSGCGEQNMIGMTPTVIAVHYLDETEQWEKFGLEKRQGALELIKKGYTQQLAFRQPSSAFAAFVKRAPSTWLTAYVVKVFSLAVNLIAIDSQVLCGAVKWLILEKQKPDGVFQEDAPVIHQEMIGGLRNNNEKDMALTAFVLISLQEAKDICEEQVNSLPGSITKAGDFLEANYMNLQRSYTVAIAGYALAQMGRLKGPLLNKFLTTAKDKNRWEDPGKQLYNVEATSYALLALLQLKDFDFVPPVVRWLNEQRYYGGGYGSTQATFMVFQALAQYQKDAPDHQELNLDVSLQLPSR
T1 sequence (P01024 23-667 partner limits assumed): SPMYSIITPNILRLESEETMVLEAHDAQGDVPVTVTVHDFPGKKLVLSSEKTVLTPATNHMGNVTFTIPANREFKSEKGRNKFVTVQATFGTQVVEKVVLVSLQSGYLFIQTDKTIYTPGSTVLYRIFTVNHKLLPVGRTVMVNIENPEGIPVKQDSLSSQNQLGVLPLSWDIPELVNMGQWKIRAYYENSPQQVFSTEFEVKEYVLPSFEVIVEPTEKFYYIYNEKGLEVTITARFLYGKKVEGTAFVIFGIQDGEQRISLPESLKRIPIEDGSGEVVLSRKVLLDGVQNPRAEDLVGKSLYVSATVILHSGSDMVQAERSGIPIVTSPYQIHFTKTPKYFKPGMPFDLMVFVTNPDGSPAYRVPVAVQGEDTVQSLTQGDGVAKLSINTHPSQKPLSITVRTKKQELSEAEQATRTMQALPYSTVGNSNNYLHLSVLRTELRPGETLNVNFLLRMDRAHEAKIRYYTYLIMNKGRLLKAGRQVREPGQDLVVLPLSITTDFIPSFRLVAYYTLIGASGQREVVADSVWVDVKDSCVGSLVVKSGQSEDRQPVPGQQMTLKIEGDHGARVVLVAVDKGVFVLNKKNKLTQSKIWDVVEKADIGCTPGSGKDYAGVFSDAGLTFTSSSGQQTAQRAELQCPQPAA
T1 sequence (P01024 1321-1663 partner limits assumed): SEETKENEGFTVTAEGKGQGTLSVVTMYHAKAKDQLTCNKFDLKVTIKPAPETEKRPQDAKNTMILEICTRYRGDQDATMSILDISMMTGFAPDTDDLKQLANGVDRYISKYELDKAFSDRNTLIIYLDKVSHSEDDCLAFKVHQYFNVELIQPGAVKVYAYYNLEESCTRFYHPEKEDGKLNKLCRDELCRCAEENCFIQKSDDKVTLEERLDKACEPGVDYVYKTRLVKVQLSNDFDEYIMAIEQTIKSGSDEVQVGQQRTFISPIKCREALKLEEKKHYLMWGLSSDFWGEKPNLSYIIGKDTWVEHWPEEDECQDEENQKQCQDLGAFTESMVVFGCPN

β(1,6)-[poly-1,3)-D-glucopyranosyl]-poly-β(1,3)-D-glucopyranose [PGG β-glucan]
Fold increase of iC3b detected on immobilized glucan compared to background (iC3b; HI serum 30 minutes at 37° C.): significantly less iC3b detected
Fold increase of iC3b detected on immobilized glucan compared to background (iC3b; regular serum 30 minutes at 37° C.): significantly higher
Formation of terminal complement complexes (fluid phase MAC) in serum treated with the glucan (sC5b-9 complex): did not activate formation of terminal complement complexes
Binding in the presence of heat inactivated (HI) serum (human neutrophils; 10% HI serum vs regular serum, 200 μg/mL): abrogated
Average percentage of binding inhibition in HI serum (human neutrophils; based on MFI, five donors): 89%
Range of percentage of binding inhibition in HI serum (human neutrophils; based on MFI, five donors): 71-100%
Minimum concentration of β-glucan detected on the cells by the BfD IV detection system (human monocytes): 100 µg/mL
Incubation time of maximal binding (human monocytes; 100 μg/mL, 10% serum, 37° C.): 60 to 120 min
Percentage of serum at which maximal binding occurred (human monocytes; [1]): 10%
Percentage of serum at which minimum binding occurred (human monocytes; [1]): 2%
Concentration at which percentage of BfD IV positive cells reached a plateau (human monocytes; 10% autologous serum, 37° C., two hours): 200 µg/mL
Binding (MFI and percentage of BfD IV positive cells) (human monocytes; 100, 200, 400 μg/mL, 10% autologous serum, 37° C., two hours): bound to both neutrophils and monocytes
Incubation temperature of maximal binding (human monocytes; two hours at 4° C., room temperature or 37° C., 10% serum): 37 °C
